Assay: xn = mol fraction of the nth substance listed

CCNCC + CCCC(C)O
viscosity [mPa·s], 100 kPa
Conditions	293.15 K	298.15 K	303.15 K	308.15 K	313.15 K	318.15 K	323.15 K
x1 = 0.0218	3.75	3.12	2.6	2.18	1.85	1.59	1.37
x1 = 0.081	3.2	2.7	2.28	1.92	1.66	1.44	1.25
x1 = 0.16	2.57	2.207	1.9	1.62	1.42	1.25	1.1
x1 = 0.2399	2.04	1.78	1.555	1.35	1.204	1.07	0.96
x1 = 0.3499	1.5	1.33	1.18	1.05	0.945	0.858	0.78
x1 = 0.44	1.16	1.04	0.94	0.85	0.778	0.71	0.65
x1 = 0.56	0.84	0.76	0.7	0.644	0.592	0.544	0.494
x1 = 0.6501	0.68	0.629	0.577	0.53	0.489	0.446	0.41
x1 = 0.74	0.552	0.506	0.466	0.435	0.4	0.367	0.34
x1 = 0.8497	0.45	0.416	0.387	0.36	0.335	0.311	0.285
x1 = 0.9397	0.368	0.346	0.325	0.304	0.285	0.268	0.25
x2 = 0.0189	0.332	0.316	0.3	0.283	0.268	0.254	0.24

COCCOCCOCCO + CCCC(C)O
viscosity [mPa·s], 101 kPa
Conditions	x1 = 0.0047	x1 = 0.0177	x1 = 0.0299	x1 = 0.0546	x1 = 0.0827	x1 = 0.1089
298.15 K	3.349	3.306	3.258	3.191	3.143	3.122
308.15 K	2.319	2.316	2.3	2.288	2.285	2.295
318.15 K	1.672	1.676	1.684	1.695	1.712	1.732

Reference: the CheMixHub viscosity set
